Like-named read-outs stand apart in the source and are kept apart here.
Experiments:
[1] = target: T1, human MCP-1 binding to THP-1 cells (Homo sapiens, UniProt P41597); experiment: Inhibition of [125I]-labeled human MCP-1 binding to THP-1 cells; details: at 100 μM test compound; read-out: inhibitory activity (inhibition of human MCP-1 binding to THP-1 cells)
T1 construct: endogenous in cells; host or cells: THP-1 (human monocytic leukemia cell line), whole cells
T1 sequence (P41597 1-360 isoform P41597-2): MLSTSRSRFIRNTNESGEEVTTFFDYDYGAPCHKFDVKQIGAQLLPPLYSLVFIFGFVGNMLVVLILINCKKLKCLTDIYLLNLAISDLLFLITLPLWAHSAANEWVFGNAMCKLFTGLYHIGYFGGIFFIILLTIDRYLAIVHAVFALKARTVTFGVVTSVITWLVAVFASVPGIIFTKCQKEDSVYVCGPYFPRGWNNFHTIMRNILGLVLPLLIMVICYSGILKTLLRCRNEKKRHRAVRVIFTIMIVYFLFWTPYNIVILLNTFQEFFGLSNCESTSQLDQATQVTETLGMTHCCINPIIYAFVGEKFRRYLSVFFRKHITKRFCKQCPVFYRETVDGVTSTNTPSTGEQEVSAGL
Source text: Measurement of Inhibition of MCP-1 Binding to TP-1 Cells
1. Construction of Recombinant Baculovirus Carrying the Human MCP-1 Gene
Based on the previously published human MCP-1 gene sequence (for example T. Yoshimura et al., Febs Letters, 1989, 244, 487-493), two synthetic DNA primers (5′-[…]-3′ and 5′-[…]-3′) flanked by restriction enzyme sites were used to amplify a DNA fragment from cDNA derived from human endothelial cells (purchased from Kurabow Co.); the amplified fragment was cut with the restriction enzymes (PstI and XbaI), ligated into a transfer vector pVL1393 (Invitrogen Co.), and the resulting vector was co-transfected along with infectious baculovirus into Sf-9 insect cells and the supernatant was plaque assayed to yield human MCP-1 gene baculovirus recombinant.
2. Synthesis of [^125I]-labeled Human MCP-1 Expressed in Baculovirus
Using the method of K. Ishii et al. (Biochem Biophys Research Communications 1995, 206, 955-961), 5×10^6 Sf-6 insect cells was infected with 5×10^7 PFU (plaque forming units) of the above human MCP-1 recombinant baculovirus and cultured for 7 days in Ex-Cell 401 medium. The culture supernatant was affinity purified using a heparin Sepharose column (Pharmacia Co.) and then further purified using reverse phase HPLC (Vydac C18 column) to prepare purified human MCP-1. The purified human MCP-1 was protein labeled by Amersham Co. using the Bolton Hunter method to yield [^125I]-labeled baculovirus expressed human MCP-1 (specific activity 2000 Ci/mmol).
3. Measurement of Inhibition of Binding of [^125I]-labeled Baculovirus Expressed Human MCP-1 to THP-1 Cells
(§1) Human monocytic leukemia cell line THP-1 was suspended in assay buffer (RPMI-1640 (Gibco-BRL Co.) containing 0.1% BSA and 25 mM HEPES adjusted to pH 7.4) to give a cell suspension of a concentration of 1×10^7 cells/mL. The test compound was diluted in the assay buffer and used as the test compound solution. [^125I]-labeled human MCP-1 described above was diluted in assay buffer to 1 mCi/mL and used as the labeled ligand solution. In a 96 well filter plate (Millipore Co.), 25 μL of test compound solution, 25 μL of labeled ligand solution and 50 μL of cell suspension were aliquoted into each well in this order, stirred (total reaction volume 100 μL), and incubated for one hour at 18° C.
(§2) After the reaction, the reaction solution was filtered, and the filter was washed twice with 200 μL of cold PBS (200 μL of cold PBS was added and then filtered). The filter was removed and placed in an RIA tube (Iuchi Seieido Co.,), and the radioactivity retained by the cells on the filter were measured using a gamma counter (Aloka Co.).
To calculate the ability of test compound to inhibit binding of human MCP-1 to THP-1 cells, non-specific binding determined by adding 100 ng of unlabeled human MCP-1 in place of the test compound was subtracted, while the counts with no test compound added was taken as 100%.
Inhibition (%)=(1−(A−B)/(C−B))×100
(A, counts with test compound added; B, counts with 100 ng of unlabeled human […] added; C, counts with [^125I]-labeled human MCP-1 added).

[2] = target: T2, human MIP-1α binding to THP-1 cells (Homo sapiens, UniProt P32246); experiment: Inhibition of MIP-1α binding to THP-1 cells; details: at 100 μM test compound; read-out: inhibitory activity (inhibition of human MIP-1α binding to THP-1 cells)
T2 construct: endogenous in cells; host or cells: THP-1 (human monocytic leukemia cell line), whole cells
T2 sequence (P32246 1-355): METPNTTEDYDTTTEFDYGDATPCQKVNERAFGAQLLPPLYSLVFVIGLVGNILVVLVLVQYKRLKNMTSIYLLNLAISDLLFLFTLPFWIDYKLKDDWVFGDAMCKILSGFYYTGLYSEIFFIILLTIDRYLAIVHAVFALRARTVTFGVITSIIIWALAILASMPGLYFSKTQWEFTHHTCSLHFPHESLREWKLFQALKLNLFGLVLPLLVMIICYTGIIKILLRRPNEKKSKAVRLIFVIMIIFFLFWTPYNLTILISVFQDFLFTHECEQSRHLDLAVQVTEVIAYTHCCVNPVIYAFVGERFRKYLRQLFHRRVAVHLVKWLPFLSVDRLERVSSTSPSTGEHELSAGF
Description: Measurement of Inhibition of MIP-1α Binding to THP-1 Cells by Test Compounds
as §1, with “Iodinated” for “[^125I]-labeled”, “MIP-1α (DuPont NEN Co.)” for “MCP-1 described above”, “250 nCi/mL” for “1 mCi/mL”, “the” for “the labeled”, “solution.” for “solution,”
as §2, with “Co.)” for “Co.,),”
To calculate the ability of test compounds to inhibit binding of human MIP-1α to THP-1 cells, non-specific binding determined by adding 100 ng of unlabeled human MIP-1α (Peprotech Co.) in place of the test compound was subtracted, while the counts with no test compound added was taken as 100%. […]

THP-1 cells = experiment: Inhibition of cell chemotaxis caused by MCP-1 (THP-1 cells); format: cell-based, human; details: MCP-1 20 ng/mL, 37° C. 2 hr, read-out: 50% inhibition concentration (IC50) of cell migration
Description: Measurement of Inhibition of Cell Chemotaxis
In order to determine the inhibition of call chemotaxis by the compounds of this invention, we measured call chemotaxis caused by monocyte chemotactic factor MCP-1 using the human monocytic leukemia cell line THP-1 as the chemotactic cell according to the method of Fall et al. (J. Immunol. Methods, […], 33, 239-247). 2×10^6 cells/mL of THP-1 cells (suspended in RPMI-1640 (Flow Laboratories Co.) +10% FCS) was placed in the upper chamber (200 μL) of a 96 well micro-chemotaxis chamber (Neuroprobe, registered tradename), and human recombinant MCP-1 in a same solution (Peprotech Co.) at a final concentration of 20 ng/mL was placed in the lower chamber, with a polycarbonate filter (PVP-free, Neuroprobe; registered tradename) placed between the two chambers, These were incubated at 37° C. for 2 hr in 5% CO2.
The filter was removed, and the cells which had migrated to the underside of the filter was fixed, stained using Diff Quick (Kokusai Shiyaku Co.) and then quantitated using a plate reader (Molecular Device Co.) at a wavelength of 550 nm to determine the index of cell migration as a mean of 3 wells, In addition. test compounds were placed in the upper chamber along with THP-1, and the inhibition of cell migration (inhibition IC50 (μM)) was determined. […]

MCP-1 receptor = target: T3, MCP-1 receptor (Homo sapiens, UniProt P41597); experiment: Inhibition of binding of [125I]-labeled human MCP-1 to cells expressing the MCP-1 receptor (293-EBNA transfectant); details: dose dependent inhibition; 293-EBNA cells expressing MCP-1 receptor; read-out: 50% inhibitory concentration (IC50), MCP-1 binding to MCP-1 receptor expressing cells
T3 construct: expressed in transfected cells
T3 sequence (P41597 1-360 isoform P41597-2): T1 sequence (P41597 1-360 isoform P41597-2)
Source text: Measurement of Inhibition of Binding of [^125I]-labeled Human MCP-1 to Cells Expressing the MCP-1 Receptor
1. Derivation of Cells Expressing the MCP-1 Receptor
cDNA fragment containing the MCP-1 receptor reported by S. Yamagami et al., Biochemical Biophysical Research Communications 1994, 202, 1156-1162) was cloned into the expression plasmid pCEP4 (Invitrogen Co.) at the NotI site, and the plasmid obtained was transfected into the human kidney epithelial cell line 293-EBNA using the Lipofectamine reagent (Gibco-BRL Co.). The cells were cultured in the presence of the selective agent (Hygromycin), and a stably expressing transfectant line was obtained. The express ion of the receptor was confirmed by binding of [^125I]-labeled human MCP-1.
2. Measurement of Inhibition of Binding of [^125I]-labeled Baculovirus Expressed Human MCP-1 to the MCP-1 Receptor Expressing Cells
The MCP-1 receptor expressing cells on tissue culture dishes were scraped using a call scraper and suspended in assay buffer (D-MEM(Gibco-BRL Co.) containing 0.1% BSA and 25 mM HEPES adjust ed to pH 7.4) to give a cell suspension of a concentration of 6×10^6 cellls/mL. The test compound was diluted in the assay buffer to concentrations of […], and 100 μM. The remainder of the procedure was as described in Example 163.

SMILES | inhibition at 100 µM [1] | further results
NC(=O)c1ccc(CN2CCCN(CCC(c3ccccc3)c3ccccc3)CC2)cc1 [Compound No. 55, 1-(3,3-Diphenylpropyl)-4-(4-carbamoylbenzyl)homopiperazine] | > 20% | –
OC(CCN1CCCN(Cc2ccc(Cl)cc2)CC1)(c1ccccc1)c1ccccc1 [Compound No. 107, 1-(3-Hydroxy-3,3-diphenylpropyl)-4-(4-chlorobenzyl)homopiperazine] | > 20% | inhibition at 100 µM [2]: > 20%
CS(=O)(=O)c1ccc(CN2CCCN(CCC(O)(c3ccc(O)cc3)c3ccc(O)cc3)CC2)cc1 [Compound No. 119, 1-[3,3-bis(4-Hydroxyphenyl)-3-hydroxypropyl]-4-[4-(methylsulfonyl)benzyl]homopiperazine] | > 20% | –
CS(=O)(=O)c1ccc(CN2CCCN(CCC(O)(c3ccco3)c3ccco3)CC2)cc1 [Compound No. 129, 1-[3,3-Di(2-furyl)-3-hydroxypropyl]-4-[4-(methylsulfonyl)benzyl]homopiperazine] | > 20% | –
Cn1cccc1C(O)(CCN1CCCN(Cc2ccc(S(C)(=O)=O)cc2)CC1)c1ccccc1 (centres unmarked) [Compound No. 136, 1-[3-Hydroxy-3-(1-methyl-2-pyrrolyl)-3-phenylpropyl]-4-[4-(methylsulfonyl)benzyl]homopiperazine] | > 20% | –
CC(=O)Nc1cccc(C(O)(CCN2CCCN(Cc3ccc(S(C)(=O)=O)cc3)CC2)c2ccccc2)c1 (centres unmarked) [Compound No. 162, 1-[3-(3-Acetylaminophenyl)-3-hydroxy-3-phenylpropyl]-4-[4-(methylsulfonyl)benzyl]homopiperazine] | > 20% | –
CC(C)(C)OC(=O)N1CCCN(CCC(O)(c2ccccc2)c2cccc(O)c2)CC1 (centres unmarked) [Compound No. 294, 1-(tert-butyloxycarbonyl)-4-[3-hydroxy-3-(3-hydroxyphenyl)-3-phenylpropyl]homopiperazine] | > 20% | –
Oc1cccc(C(O)(CCN2CCCNCC2)c2ccccc2)c1 (centres unmarked) [Compound No. 295, 1-[3-hydroxy-3-(3-hydroxyphenyl)-3-phenylpropyl]homopiperazine] | > 20% | –
CC(=O)N1CCCN(CCC(O)(c2ccccc2)c2cccc(O)c2)CC1 (centres unmarked) [Compound No. 296, 1-acetyl-4-[3-hydroxy-3-(3-hydroxyphenyl)-3-phenylpropyl]homopiperazine] | > 20% | –
CS(=O)(=O)c1ccc(CN2CCCN(CCC(c3ccccc3)c3ccccc3)CC2)cc1 [compound 36] | > 20% | IC50 (THP-1 cells; Homo sapiens): 9 µM; IC50 (MCP-1 receptor): 17 µM
c1ccc(C(CCN2CCCN(Cc3ccncc3)CC2)c2ccccc2)cc1 [compound 240] | – | IC50 (THP-1 cells): 30 µM
